According to patent publication US8846626B2, “Drug composition for treating chronic liver disease and its application” (Shuguang Hospital Affiliated with Shanghai University of …, priority 2010, dated 2014):

How the values were obtained:
[1] = system: rats of bile duct ligation; test: Bile duct ligation (BDL) rat liver fibrosis model; assay type: in vivo, SD male rats; conditions: BDL 4 weeks; for Hyp (liver tissue Hyp content): intragastric once daily for 3 weeks from week 2; for Hyp (liver tissue Hyp content) / biliary liver fibrosis scores (integral): x±s
From the text: Effect of active component compatibility of Astragalus soup of anti-hepatic fibrosis for rats of bile duct ligation
83 SD male rats, SPF grade, weighing 200˜220 g, by the Shanghai Experimental Animal Center of Chinese Academy of Sciences, Certificate of Conformity: SCXK (Shanghai) 2010-0005, fed on the Shanghai Medical University Experimental Animal Center, free access to water.
Model rats (75 rats) are cut along the ventral midline, exposing the common bile duct, conversely injected hardener into hilus hepatis, ligating proximal and distal ends of the common bile duct, cutting the middle, closing the abdomen for 4 weeks. Sham-operated rats (8 rats) only have abdomen cut, and closed after freeing the common bile duct.
Starting from the first day of 2nd week of modeling, the model rats were randomly divided into 5 groups of astragalus soup, A/B combination, A alone, B alone, and UDCA, each group has 12 rats. While continuing modeling, the groups of administration are intervened by eight times of clinical dose amount of a 65 kg adult body weight. Before using, the drug compositions of astragalus soup, A/B combination, A alone, B alone, and UDCA (UDCA: 80 mg·kg^−1·d^−1, ig) are respectively diluted with 10 ml of distilled water, and is processed with intragastric administration according to 10 ml/kg rat body weight dose, once daily for 3 weeks. And sham-operation control rats (8) and model control group (15) are set; rats in the normal group and the model control group are processed with intragastric administration by the same volume of distilled water.
At the end of 4th week, rats are executed to obtain test samples. HE staining and collagen staining of liver tissue, liver tissue Hyp content, serum liver function: ALT, aspartate aminotransferase, AST, and activity of alkaline phosphatase, ALP, albumin, Alb, and total bilirubin, TBil content.

[2] = system: DMN-induced rat liver fibrosis model; test: DMN-induced rat liver fibrosis model, orthogonal design; assay type: in vivo, Wistar male rats
From the text: The DMN-induced rat liver fibrosis model and analysis of orthogonal design is used to obtain the optimal ratio of the composition to lower collagen content in the liver.
160 Wistar male rats, (40 in normal group, 120 in the model group), clean level, body weight (150±10) g, provided by the Shanghai Experimental Animal Center of Chinese Academy of Sciences, and is fed, modeled, and observed in Clean Animal room of Shanghai Medical University Experimental Animal Center, free access to water.
Astragalus Astragalosides and Glycyrrhiza Acid are mixed by weight ratio 3:1, 4:1, 5:1 and 6:1, drug composition A+B in different proportions are randomly selected for subsequent experiments.
Referring to Ala-Kokko method of modeling (Ala-Kokko L, Pihlajaniemi T, Myers J C et al. Gene expression of type I, III and IV collagens in liver fibrosis induced by dimethylnitrosamine in the rat. Biochem J 1987; 244: 75-9.) DMN is diluted with saline into 0.5% solution, in the model group, 120 rats are intraperitoneally injected by […] dose, once per day, on the beginning 3 days of a week, for 4 weeks. In normal control group, 40 rats are intraperitoneally injected with normal saline of same dose.
Respectively at the end of three days of modeling, the end of two weeks of modeling, the end of three weeks of modeling, and the end of four weeks of modeling, 10 normal rats, 10 model rats are observed as a model of dynamic observation. Starting from the end of 2 weeks of modeling, the model rats were randomly divided into 1-6 groups of orthogonal design and model group, each having 10 rats. While continuing modeling, the groups of orthogonal design are intervened by eight times of clinical dose amount of a 65 kg adult body weight, administrated respectively in accordance with design amount. Before using, the drug composition is diluted with 10 ml of distilled water, and is processed with intragastric administration according to 10 ml/kg rat body weight dose, once daily for 2 weeks. And normal control rats (10) and model control group (10) are set; rats in the normal group and the model control groups are processed with intragastric administration by the same volume of distilled water.
Astragalus glycosides A, Glycyrrhiza Acid, B, and drugcomposition A+B are factors for evaluation, each factor were set from two levels (level 1=administration, level 2=no), to obtain the orthogonal design. Model groups and normal groups are set.
Measurement data is expressed as x±s, the SAS 9.1.2, DAS 2.1.1 and SPSS16.0 statistical software are used to process data, and single-factor analysis of variance is used for comparisons between multiple groups.

[3] = system: DMN-induced rat liver fibrosis model; test: as above; assay type: in vivo, Wistar male rats; conditions: result in words; compared with original astragalus soup

Row | SMILES | Hyp (liver tissue Hyp content) [1] | biliary liver fibrosis scores (integral) [1] | serum liver function ALP [1] [K/100 ml] | serum liver function ALT [1] [U/L] | serum liver function AST [1] [U/L] | serum liver function Alb [1] [g/L] | serum liver function TBil [1] | Hyp (hydroxyproline content in liver tissue) ([2]; DMN modeling 4 weeks, intragastric once daily for 2 weeks from end of week 2, x±s) [µg/g] | hyperplasia stages of rat liver collagen: stage 0 ([2]; number of rats at stage 0, DMN 4 weeks) | hyperplasia stages of rat liver collagen: stage I ([2]; number of rats at stage I, DMN 4 weeks) | hyperplasia stages of rat liver collagen: stage II ([2]; number of rats at stage II, DMN 4 weeks) | hyperplasia stages of rat liver collagen: stage III ([2]; number of rats at stage III, DMN 4 weeks) | BMP-7 mRNA, protein and protein expression of P-Smad1/5/8 in liver tissue ([2]; result in words, liver fibrosis in rat liver tissues by DMN) | serum liver function ALP ([2]; serum, DMN 4 weeks, x±SD) [K/100 ml] | serum liver function ALT ([2]; serum, DMN 4 weeks, x±SD) [U/L] | serum liver function AST ([2]; serum, DMN 4 weeks, x±SD) | serum liver function Alb ([2]; serum, DMN 4 weeks, x±SD) [g/L] | serum liver function TBil ([2]; serum, DMN 4 weeks, x±SD) [µmol/L] | reduces generating of TGF-β1 [3]
1 | C[C@H](CCC(=O)O)[C@H]1CC[C@H]2[C@@H]3[C@@H](O)C[C@@H]4C[C@H](O)CC[C@]4(C)[C@H]3CC[C@]12C [UDCA, Ursodeoxycholic acid] | 790.16 ± 129.85^$$ μg/g, wet liver weight | 6.83 ± 0.75^$$ | 79.01 ± 5.80 | 28.79 ± 8.61 | 102.80 ± 26.01 | 24.20 ± 3.64 | 67.60 ± 9.62^$ μmol/L | – | – | – | – | – | – | – | – | – | – | – | –
2 | CC1(C)[C@@H](O[C@H]2O[C@H](C(=O)O)[C@@H](O)[C@H](O)[C@H]2O[C@@H]2O[C@H](C(=O)O)[C@@H](O)[C@H](O)[C@H]2O)CC[C@]2(C)[C@H]3C(=O)C=C4[C@@H]5C[C@@](C)(C(=O)O)CC[C@]5(C)CC[C@@]4(C)[C@]3(C)CC[C@@H]12 [B, Glycyrrhiza Acid] | 772.00 ± 86.81^$ μg/g, wet liver weight | 6.50 ± 0.84^$ | 77.22 ± 4.05 | 26.66 ± 7.89 | 93.67 ± 14.46 | 25.07 ± 5.18 | 67.35 ± 7.39^$ μmol/L | 595.74 ± 109.74 | 0 | 0 | 5 | 4 | significantly increase | 38.77 ± 17.84 | 55.18 ± 17.12 | 76.61 ± 14.09^ U/L | 23.11 ± 5.52 | 10.23 ± 5.42 | significantly better than the original astragalus soup
